Like-named read-outs stand apart in the source and are kept apart here.
Experiments:
[1] = system: MCF7; assay: NCI-60 SRB screen: breast cancer MCF7; type: cell-based; conditions: Homo sapiens, 48 h, MCF7
[2] = system: SNB-75; assay: NCI-60 SRB screen: CNS cancer SNB-75; type: cell-based, human; conditions: SNB-75
[3] = system: HOP-92; assay: NCI-60 SRB screen: non-small cell lung cancer HOP-92; type: cell-based, human; conditions: HOP-92
[4] = system: Colon Cancer subpanel; assay: NCI-60 screen, subpanel Colon Cancer
[5] = system: SK-MEL-5; assay: NCI-60 SRB screen: melanoma SK-MEL-5; type: cell-based, human; conditions: SK-MEL-5
[6] = system: U251; assay: NCI-60 SRB screen: CNS cancer U251; type: cell-based; conditions: Homo sapiens, U251
[7] = system: UACC-257; assay: NCI-60 SRB screen: melanoma UACC-257; type: cell-based, human; conditions: UACC-257
[8] = system: CNS cancer subpanel; assay: NCI-60 screen, subpanel CNS cancer
[9] = system: OVCAR-3; assay: NCI-60 SRB screen: ovarian cancer OVCAR-3; type: cell-based, human; conditions: OVCAR-3
[10] = system: NCI-H460; assay: NCI-60 SRB screen: non-small cell lung cancer NCI-H460; type: cell-based; conditions: Homo sapiens, 48 h, NCI-H460
[11] = system: Melanoma subpanel; assay: NCI-60 screen, subpanel Melanoma
[12] = system: EKVX; assay: NCI-60 SRB screen: non-small cell lung cancer EKVX; type: cell-based, human
[13] = system: Leukemia subpanel; assay: NCI-60 screen, subpanel Leukemia
[14] = system: Ovarian Cancer subpanel; assay: NCI-60 screen, subpanel Ovarian Cancer
[15] = system: HL-60(TB); assay: NCI-60 SRB screen: leukemia HL-60(TB); type: cell-based; conditions: Homo sapiens, 48 h, HL-60(TB)
[16] = system: HS 578T; assay: NCI-60 SRB screen: breast cancer HS 578T; type: cell-based, human; conditions: HS 578T
[17] = system: SF-295; assay: NCI-60 SRB screen: CNS cancer SF-295; type: cell-based, human; conditions: SF-295
[18] = system: OVCAR-5; assay: NCI-60 SRB screen: ovarian cancer OVCAR-5; type: cell-based, human; conditions: OVCAR-5
[19] = system: NCI-H322M; assay: NCI-60 SRB screen: non-small cell lung cancer NCI-H322M; type: cell-based, human
[20] = system: OVCAR-4; assay: NCI-60 SRB screen: ovarian cancer OVCAR-4; type: cell-based; conditions: Homo sapiens; OVCAR-4; five concentrations, 48 h, SRB; read-out: GI50
[21] = system: NCI/ADR-RES; assay: NCI-60 SRB screen: ovarian cancer NCI/ADR-RES; type: cell-based, human
[22] = system: SNB-19; assay: NCI-60 SRB screen: CNS cancer SNB-19; type: cell-based, human; conditions: SNB-19
[23] = system: UACC-62; assay: NCI-60 SRB screen: melanoma UACC-62; type: cell-based, human; conditions: UACC-62
[24] = system: MDA-MB-468; assay: NCI-60 SRB screen: breast cancer MDA-MB-468; type: cell-based, human
[25] = system: IGROV1; assay: NCI-60 SRB screen: ovarian cancer IGROV1; type: cell-based, human; conditions: IGROV1
[26] = system: SK-MEL-28; assay: NCI-60 SRB screen: melanoma SK-MEL-28; type: cell-based, human; conditions: SK-MEL-28
[27] = system: SR; assay: NCI-60 SRB screen: leukemia SR; type: cell-based; conditions: Homo sapiens, 48 h
[28] = system: M14; assay: NCI-60 SRB screen: melanoma M14; type: cell-based, human; conditions: M14
[29] = system: CCRF-CEM; assay: NCI-60 SRB screen: leukemia CCRF-CEM; type: cell-based; conditions: Homo sapiens, 48 h
[30] = system: NSCL cancer subpanel; assay: NCI-60 screen, subpanel NSCL cancer
[31] = system: 60 human tumor cell lines; assay: cells
[32] = system: NCI-H23; assay: NCI-60 SRB screen: non-small cell lung cancer NCI-H23; type: cell-based, human; conditions: NCI-H23
[33] = system: Renal Cancer subpanel; assay: NCI-60 screen, subpanel Renal Cancer
[34] = system: MOLT-4; assay: NCI-60 SRB screen: leukemia MOLT-4; type: cell-based; conditions: Homo sapiens, 48 h, MOLT-4
[35] = system: A549/ATCC; assay: NCI-60 SRB screen: non-small cell lung cancer A549/ATCC; type: cell-based, human; conditions: A549/ATCC
[36] = single dose 10 µM, read-out: Percentage Cell Growth
[37] = five concentrations, SRB, read-out: GI50
[38] = Homo sapiens, five concentrations, 48 h, SRB, read-out: GI50

Which results are given for `CC(=O)OCC12CCC(C(C)C(N)=O)C1C1CCC3C4(C)CCC(OC(C)=O)C(C)(C)C4CCC3(C)C1(C)CC2` [Compound 4, 3β,28-Diacetyloxy-(20R)-29-amino-29-oxolupane]?
activity at 10 µM [1, 36]: -45.6%; GI50 [1, 37]: 3.27 µM; GI50 [2, 38]: 5.59 µM; Percentage Cell Growth ([2]; single dose 10 µM): −47.83%; Percentage Cell Growth ([3]; single dose 10 µM): −83.15%; GI50 [3, 38]: 5.21 µM; MID b, average sensitivity of all cell line of particular subpanel [4]: 5.37 µM; Selectivity, ratio MID a: MID b [4]: 1.47; GI50 [5, 38]: 3.8 µM; Percentage Cell Growth ([5]; single dose 10 µM): −71.94%; activity at 10 µM ([6]; U-251, 48 h, single dose 10 µM, read-out: Percentage Cell Growth): -51.4%; GI50 ([6]; U-251, five concentrations, 48 h, SRB, read-out: GI50): 5.1 µM; GI50 [7, 38]: 4.83 µM; Percentage Cell Growth ([7]; single dose 10 µM): −46.24%; MID b, average sensitivity of all cell line of particular subpanel [8]: 7.27 µM; Selectivity, ratio MID a: MID b [8]: 1.08; GI50 [9, 38]: 3.95 µM; Percentage Cell Growth ([9]; single dose 10 µM): −76.19%; activity at 10 µM [10, 36]: -61.8%; GI50 [10, 37]: 13.4 µM; MID b, average sensitivity of all cell line of particular subpanel [11]: 7.80 µM; Selectivity, ratio MID a: MID b [11]: 1.01; GI50 [12, 38]: 9.28 µM; Percentage Cell Growth ([12]; single dose 10 µM): −25.21%; MID b, average sensitivity of all cell line of particular subpanel [13]: 3.55 µM; Selectivity, ratio MID a: MID b [13]: 2.22; MID b, average sensitivity of all cell line of particular subpanel [14]: 15.97 µM; Selectivity, ratio MID a: MID b [14]: 0.49; activity at 10 µM [15, 36]: -23.1%; GI50 [15, 37]: 2.76 µM; Percentage Cell Growth ([16]; single dose 10 µM): −32.99%; GI50 [16, 38]: 12.4 µM; GI50 [17, 38]: 8.57 µM; Percentage Cell Growth ([17]; single dose 10 µM): −50.75%; GI50 [18, 38]: 14.4 µM; Percentage Cell Growth ([18]; single dose 10 µM): −77.37%; GI50 [19, 38]: 13 µM; Percentage Cell Growth ([19]; single dose 10 µM): −78.19%; GI50 [20]: 4.72 µM; GI50 [21, 38]: 7.74 µM; Percentage Cell Growth ([21]; single dose 10 µM): −57.29%; GI50 [22, 38]: 11.9 µM; Percentage Cell Growth ([22]; single dose 10 µM): −39.95%; GI50 [23, 38]: 5.46 µM; Percentage Cell Growth ([23]; single dose 10 µM): −82.97%; GI50 [24, 38]: 3.96 µM; Percentage Cell Growth ([24]; single dose 10 µM): −40.40%; GI50 ([25]; Homo sapiens, IGROV-1, five concentrations, 48 h, SRB, read-out: GI50): 13.2 µM; Percentage Cell Growth ([25]; single dose 10 µM): −71.25%; GI50 [26, 38]: 12 µM; Percentage Cell Growth ([26]; single dose 10 µM): −73.19%; activity at 10 µM [27, 36]: 10.8%; GI50 [27, 37]: 3.32 µM; GI50 [28, 38]: 7.38 µM; Percentage Cell Growth ([28]; single dose 10 µM): −44.25%; activity at 10 µM [29, 36]: -12.4%; GI50 [29, 37]: 5.19 µM; MID b, average sensitivity of all cell line of particular subpanel [30]: 7.50 µM; Selectivity, ratio MID a: MID b [30]: 1.05; GI50 ([31]; read-out: GI50 ranges against all panels of NCI60): 1.1 to 54.4 µM; GI50 ([31]; read-out: MID a, average sensitivity of all cell line (GI50-MID)): 7.87 µM; GI50 [32, 38]: 9.42 µM; Percentage Cell Growth ([32]; single dose 10 µM): −40.35%; MID b, average sensitivity of all cell line of particular subpanel [33]: 8.12 µM; Selectivity, ratio MID a: MID b [33]: 0.97; activity at 10 µM [34, 36]: -29.1%; GI50 [34, 37]: 3.29 µM; Percentage Cell Growth ([35]; single dose 10 µM): 9.89%; GI50 [35, 38]: 3.97 µM
